Literature values as cited in patent US10611908B2, “Micelles for mucoadhesive drug delivery” (McMaster University, priority 2015, dated 2020).

pKa | Compound
~8.8 | OB(O)c1ccccc1 [PBA, Phenylboronic acid]
~4.6 | C=C(C)C(=O)O [MAA, methacrylic acid]
